Laboratory results published in US20240238423A9, “TETRAHYDROISOQUINOLINE HETEROBIFUNCTIONAL BCL-XL DEGRADERS” (Treeline Biosciences, Inc., priority 2022, published 2024).
Read-outs that look alike come from different tables or passages of the source.

Molecular target: T1, Human BCL-XL protein (N-terminal HiBiT tagged BCL-XL in HT1080 cells) (Homo sapiens, UniProt Q07817)
T1 construct: expressed in transfected cells; host or cells: HT-1080 (ATCC CCL-121), stably transduced with lentivirus pLV-UBC-N-HiBiT-BCL-XL-PGK-puro and selected with puromycin
Experiment: HiBiT based degradation assay
Format: cell-based
Conditions: HT1080 cells expressing HiBiT-BCL-XL; for Ymin (24 h) / Ymin (6 h): BCL-XL degradation normalized with DMSO control; for DC50: BCL-XL degradation
How it was run: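 This HiBiT degradation assay measured loss of BCL-XL in HT1080 cells that stably express an N-terminal HiBiT-BCL-XL fusion delivered by lentivirus. Cells were added to compound-spotted 384-well plates, and luminescence was read on a PHERAstar FSX reader. Signal was expressed relative to DMSO controls, curves were fitted by four-parameter logistic regression, and for hook-shaped curves the Ymin point served as the bottom plateau when calculating EC50.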

T1 sequence (Q07817 whole entry): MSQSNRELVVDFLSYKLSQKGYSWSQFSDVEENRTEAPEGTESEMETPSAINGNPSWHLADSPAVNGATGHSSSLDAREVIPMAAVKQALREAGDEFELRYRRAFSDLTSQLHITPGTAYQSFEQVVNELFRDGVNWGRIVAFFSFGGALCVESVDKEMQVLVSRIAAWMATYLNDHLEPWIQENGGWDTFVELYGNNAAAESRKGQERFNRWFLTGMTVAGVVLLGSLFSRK

| Ymin (24 h) | DC50 (24 h, read-out: EC50 (24 h)) [nM] | SMILES | Ymin (6 h) | DC50 (6 h, read-out: EC50 (6 h)) [nM] |
| --- | --- | --- | --- | --- |
| A (Ymin < 50%) | < 100 | Cc1cc(OCCC[C@@H]2CCN(CC(=O)Nc3ccc4c(C5CCC(=O)NC5=O)nn(C)c4c3)[C@H](C)C2)ccc1-c1ccc(N2CCc3cccc(C(=O)Nc4nc5ccccc5s4)c3C2)nc1C(=O)O (stereo partly drawn) [Compound 344b, 6-[8-(1,3-benzothiazol-2-ylcarbamoyl)-3,4-dihydro-1H-isoquinolin-2-yl]-3-[4-[3-[(2R,4R)-1-[2-[[3-(2,6-dioxo-3-piperidyl)-1-methyl-indazol-6-yl]amino]-2-oxo-ethyl]-2-methyl-4-piperidyl]propoxy]-2-methyl-phenyl]pyridine-2-carboxylic acid] | – | – |
| A (Ymin < 50%) | < 100 | Cc1c(OCC2CC3(CCN(CCN4CCN(c5cccc6c(C7CCC(=O)NC7=O)nn(C)c56)CC4)CC3)C2)cccc1-c1ccc(N2CCc3cccc(C(=O)Nc4nc5ccccc5s4)c3C2)nc1C(=O)O (centres unmarked) [Compound 188, 6-[8-(1,3-benzothiazol-2-ylcarbamoyl)-3,4-dihydro-1H-isoquinolin-2-yl]-3-[3-[[7-[2-[4-[3-(2,6-dioxo-3-piperidyl)-1-methyl-indazol-7-yl]piperazin-1-yl]ethyl]-7-azaspiro[3.5]nonan-2-yl]methoxy]-2-methyl-phenyl]pyridine-2-carboxylic acid] | – | – |
| A (Ymin < 50%) | < 100 | Cc1c(O[C@H]2CC[C@H](CCCCN3CCN(c4ccc5c(C6CCC(=O)NC6=O)nn(C)c5c4F)CC3)CC2)cccc1-c1ccc(N2CCc3cccc(C(=O)Nc4nc5ccccc5s4)c3C2)nc1C(=O)O (some centres unmarked) [Compound 293a, 6-(8-(benzo[d]thiazol-2-ylcarbamoyl)-3,4-dihydroisoquinolin-2(1H)-yl)-3-(3-(((1s,4r)-4-(4-(4-(3-(2,6-dioxopiperidin-3-yl)-7-fluoro-1-methyl-1H-indazol-6-yl)piperazin-1-yl)butyl)cyclohexyl)oxy)-2-methylphenyl)picolinic acid] | – | – |
| A (Ymin < 50%) | < 100 | Cc1c(Oc2ccc(CCCN3CCN(c4ccc5c(C6CCC(=O)NC6=O)nn(C)c5c4)CC3)cc2)cccc1-c1ccc(N2CCc3cccc(C(=O)Nc4nc5ccccc5s4)c3C2)nc1C(=O)O (centres unmarked) [Compound 149, 6-(8-(benzo[d]thiazol-2-ylcarbamoyl)-3,4-dihydroisoquinolin-2(1H)-yl)-3-(3-(4-(3-(4-(3-(2,6-dioxopiperidin-3-yl)-1-methyl-1H-indazol-6-yl)piperazin-1-yl)propyl)phenoxy)-2-methylphenyl)picolinic acid] | B (50% ≤ Ymin < 70%) | < 100 |
| A (Ymin < 50%) | < 100 | Cc1c(OCC[C@H]2CCN(CC(=O)Nc3ccc4c(C5CCC(=O)NC5=O)nn(C)c4c3)C2)cccc1-c1ccc(N2CCc3cccc(C(=O)Nc4nc5ccccc5s4)c3C2)nc1C(=O)O (stereo partly drawn) [Compound 219b, 6-[8-(1,3-benzothiazol-2-ylcarbamoyl)-3,4-dihydro-1H-isoquinolin-2-yl]-3-[3-[2-[(3R)-1-[2-[[3-(2,6-dioxo-3-piperidyl)-1-methyl-indazol-6-yl]amino]-2-oxo-ethyl]pyrrolidin-3-yl]ethoxy]-2-methyl-phenyl]pyridine-2-carboxylic acid] | B (50% ≤ Ymin < 70%) | < 100 |
| A (Ymin < 50%) | < 100 | Cc1c(Oc2ccc(CCN3CCN(c4ccc5c(C6CCC(=O)NC6=O)nn(C)c5c4)CC3)cc2)cccc1-c1ccc(N2CCc3cccc(C(=O)Nc4nc5ccccc5s4)c3C2)nc1C(=O)O (centres unmarked) [Compound 208, 6-[8-(1,3-benzothiazol-2-ylcarbamoyl)-3,4-dihydro-1H-isoquinolin-2-yl]-3-[3-[4-[2-[4-[3-(2,6-dioxo-3-piperidyl)-1-methyl-indazol-6-yl]piperazin-1-yl]ethyl]phenoxy]-2-methyl-phenyl]pyridine-2-carboxylic acid] | – | – |
| B (50% ≤ Ymin < 70%) | 100 to 1000 | Cc1c(OCCC(F)(F)C2CCN(CC(=O)Nc3cccc4c(C5CCC(=O)NC5=O)nn(C)c34)CC2)cccc1-c1ccc(N2CCc3cccc(C(=O)Nc4nc5ccccc5s4)c3C2)nc1C(=O)O (centres unmarked) [Compound 196, 6-(8-(benzo[d]thiazol-2-ylcarbamoyl)-3,4-dihydroisoquinolin-2(1H)-yl)-3-(3-(3-(1-(2-((3-(2,6-dioxopiperidin-3-yl)-1-methyl-1H-indazol-7-yl)amino)-2-oxoethyl)piperidin-4-yl)-3,3-difluoropropoxy)-2-methylphenyl)picolinic acid] | – | – |
| A (Ymin < 50%) | < 100 | Cc1c(OCC(F)(F)CN2C[C@@H](C)N(CC(=O)N3CCN(c4cccc5c(C6CCC(=O)NC6=O)nn(C)c45)CC3)[C@@H](C)C2)cccc1-c1ccc(N2CCc3cccc(C(=O)Nc4nc5ccccc5s4)c3C2)nc1C(=O)O (stereo partly drawn) [Compound 179a, 6-[8-(1,3-benzothiazol-2-ylcarbamoyl)-3,4-dihydro-1H-isoquinolin-2-yl]-3-[3-[3-[(3R,5S)-4-[2-[4-[3-(2,6-dioxo-3-piperidyl)-1-methyl-indazol-7-yl]piperazin-1-yl]-2-oxo-ethyl]-3,5-dimethyl-piperazin-1-yl]-2,2-difluoro-propoxy]-2-methyl-phenyl]pyridine-2-carboxylic acid] | – | – |
| A (Ymin < 50%) | < 100 | Cn1nc(C2CCC(=O)NC2=O)c2ccc(N3CCN(CCCC[C@H]4CC[C@H](Oc5cccc(-c6ccc(N7CCc8cccc(C(=O)Nc9nc%10ccccc%10s9)c8C7)nc6C(=O)O)c5)CC4)CC3)cc21 (some centres unmarked) [Compound 329a, 6-(8-(benzo[d]thiazol-2-ylcarbamoyl)-3,4-dihydroisoquinolin-2(1H)-yl)-3-(3-(((1s,4r)-4-(4-(4-(3-(2,6-dioxopiperidin-3-yl)-1-methyl-1H-indazol-6-yl)piperazin-1-yl)butyl)cyclohexyl)oxy)phenyl)picolinic acid] | – | – |
| A (Ymin < 50%) | < 100 | Cc1c(O[C@H]2CC[C@H](CCCCN3CCN(c4ccc5c(C6CCC(=O)NC6=O)nn(C)c5c4)CC3(C)C)CC2)cccc1-c1ccc(N2CCc3cccc(C(=O)Nc4nc5ccccc5s4)c3C2)nc1C(=O)O (some centres unmarked) [Compound 323a, 6-(8-(benzo[d]thiazol-2-ylcarbamoyl)-3,4-dihydroisoquinolin-2(1H)-yl)-3-(3-(((1s,4r)-4-(4-(4-(3-(2,6-dioxopiperidin-3-yl)-1-methyl-1H-indazol-6-yl)-2,2-dimethylpiperazin-1-yl)butyl)cyclohexyl)oxy)-2-methylphenyl)picolinic acid] | – | – |

| SMILES | Ymin (24 h) | DC50 (24 h, read-out: EC50 (24 h)) [nM] | Ymin (6 h) | DC50 (6 h, read-out: EC50 (6 h)) [nM] |
| --- | --- | --- | --- | --- |
| Cc1c(OCCO[C@H]2C[C@H]3CC[C@@H](C2)N3CC(=O)Nc2ccc3c(C4CCC(=O)NC4=O)nn(C)c3c2)cccc1-c1ccc(N2CCc3cccc(C(=O)Nc4nc5ccccc5s4)c3C2)nc1C(=O)O (stereo partly drawn) [Compound 174a, 6-(8-(benzo[d]thiazol-2-ylcarbamoyl)-3,4-dihydroisoquinolin-2(1H)-yl)-3-(3-(2-(((1R,3r,5S)-8-(2-((3-(2,6-dioxopiperidin-3-yl)-1-methyl-1H-indazol-6-yl)amino)-2-oxoethyl)-8-azabicyclo[3.2.1]octan-3-yl)oxy)ethoxy)-2-methylphenyl)picolinic acid] | A (Ymin < 50%) | < 100 | – | – |
| Cc1c(OCCCCCCCN2CCN(c3cccc4c(C5CCC(=O)NC5=O)nn(C)c34)CC2)cccc1-c1ccc(N2CCc3cccc(C(=O)Nc4nc5ccccc5s4)c3C2)nc1C(=O)O (centres unmarked) [Compound 206, 6-[8-(1,3-benzothiazol-2-ylcarbamoyl)-3,4-dihydro-1H-isoquinolin-2-yl]-3-[3-[7-[4-[3-(2,6-dioxo-3-piperidyl)-1-methyl-indazol-7-yl]piperazin-1-yl]heptoxy]-2-methyl-phenyl]pyridine-2-carboxylic acid] | B (50% ≤ Ymin < 70%) | < 100 | C (Ymin ≥ 70%) | 1000 to 10000 |
| Cc1c(OCCO[C@@H]2C[C@H]3CC[C@@H](C2)N3CC(=O)Nc2cccc3c(C4CCC(=O)NC4=O)nn(C)c23)cccc1-c1ccc(N2CCc3cccc(C(=O)Nc4nc5ccccc5s4)c3C2)nc1C(=O)O (stereo partly drawn) [Compound 224a, 6-(8-(benzo[d]thiazol-2-ylcarbamoyl)-3,4-dihydroisoquinolin-2(1H)-yl)-3-(3-(2-(((1R,3s,5S)-8-(2-((3-(2,6-dioxopiperidin-3-yl)-1-methyl-1H-indazol-7-yl)amino)-2-oxoethyl)-8-azabicyclo[3.2.1]octan-3-yl)oxy)ethoxy)-2-methylphenyl)picolinic acid] | B (50% ≤ Ymin < 70%) | < 100 | C (Ymin ≥ 70%) | 1000 to 10000 |
| Cc1c(OCCCCN2CCC(CN3CCN(c4ccc5c(C6CCC(=O)NC6=O)nn(C)c5c4)CC3)CC2)cccc1-c1ccc(N2CCc3cccc(C(=O)Nc4nc5ccccc5s4)c3C2)nc1C(=O)O (centres unmarked) [Compound 235, 6-[8-(1,3-benzothiazol-2-ylcarbamoyl)-3,4-dihydro-1H-isoquinolin-2-yl]-3-[3-[4-[4-[[4-[3-(2,6-dioxo-3-piperidyl)-1-methyl-indazol-6-yl]piperazin-1-yl]methyl]-1-piperidyl]butoxy]-2-methyl-phenyl]pyridine-2-carboxylic acid] | A (Ymin < 50%) | < 100 | – | – |
| Cc1c(OCCCC[C@H]2CCCN(CC(=O)Nc3cccc4c(C5CCC(=O)NC5=O)nn(C)c34)C2)cccc1-c1ccc(N2CCc3cccc(C(=O)Nc4nc5ccccc5s4)c3C2)nc1C(=O)O (stereo partly drawn) [Compound 186b, 6-[8-(1,3-benzothiazol-2-ylcarbamoyl)-3,4-dihydro-1H-isoquinolin-2-yl]-3-[3-[4-[(3S)-1-[2-[[3-(2,6-dioxo-3-piperidyl)-1-methyl-indazol-7-yl]amino]-2-oxo-ethyl]-3-piperidyl]butoxy]-2-methyl-phenyl]pyridine-2-carboxylic acid] | C (Ymin ≥ 70%) | 1000 to 10000 | – | – |
